Reference: ChEMBL document CHEMBL1159371, “Trisphaerolide A, a novel polyketide from the Dominican sponge Erylus trisphaerus” (J Nat Prod, 2003)
In brackets after ≈: the same amount, converted by molar mass. Activity calls are given as the source filed them. No cut-off for these calls is given here.

Experiments:
[1] = system: MCF7; assay: Cytotoxicity against human MCF7 cells; type: functional, cell-based
[2] = system: MCF7; assay: Cell cycle arrest in human MCF7 cells by G2 checkpoint inhibition assay; type: functional, cell-based

**Q.** Which results are given for `C[C@]1(O)CC(=O)O[C@](C)(CCCCCCCCC/C=C/Cc2ccccc2)C1` [TRISPHAEROLIDE A]?
**A.** IC50 [1]: 30 µg/mL (≈ 77.6 µM); Activity [2]: inactive
